Experimental findings from article PMC3026091 (Antiviral research, 2010) are described below.

Molecules are shown by their SMILES.

The target of test [1] is T1, Bovine pancreatic trypsin (Bos taurus, UniProt P00760).
T1 sequence (P00760 24-246): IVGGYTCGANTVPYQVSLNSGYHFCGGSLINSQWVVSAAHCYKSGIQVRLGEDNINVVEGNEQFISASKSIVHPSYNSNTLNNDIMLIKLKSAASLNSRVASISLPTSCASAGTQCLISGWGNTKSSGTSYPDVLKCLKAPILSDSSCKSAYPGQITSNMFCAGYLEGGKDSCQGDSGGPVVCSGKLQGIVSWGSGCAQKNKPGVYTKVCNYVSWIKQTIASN
The experiment in a line: Trypsin inhibition assay with chromogenic BAPNA substrate. As to conditions: analog 100 µM, trypsin 60 µM, BAPNA 500 µM; data not shown. It counts as biochemical.

A further test has as its system DEN2V NS2B-NS3pro. It counts as biochemical, dengue 2 virus (strain TSV01). As to conditions: mechanism of inhibition of DEN2V NS2B-NS3pro, Dynafit model selection.
The target in test [2] is T1, Bovine pancreatic trypsin. Briefly: Steady-state kinetics of inhibitors of trypsin. It counts as biochemical. As to conditions: BOC-GRR-AMC fluorogenic substrate; for Mechanism (trypsin): mechanism of trypsin inhibition.

With `O=C1c2c(O)ccc([N+](=O)[O-])c2C(=O)c2c([N+](=O)[O-])ccc(O)c21` [ARDP0006], the “Inhibition of trypsin cleavage of the chromogenic substrate BAPNA” value in test [1] is “inhibited trypsin cleavage of the fluorogenic substrate but not the chromogenic substrate”. Also, in the test on DEN2V NS2B-NS3pro, the Mechanism result is reported as “competitive inhibition model”. The “Mechanism (trypsin)” value in test [2] is recorded as “uncompetitive trypsin inhibitor”. The Ki in test [2] (read-out: Ki2 trypsin, 50 nM trypsin) was 13 ± 0.1 µM.

In the case of `N=C(N)c1ccccc1` [Benzamidine, reference compound], the “Mechanism (trypsin)” value in test [2] is recorded as “Competitive”.
